Source: patent US8912209B2, “Rock inhibitors” (Amakem NV, priority 2010, dated 2014)

What was measured:
ROCK II = target: T1, ROCK II (Homo sapiens, UniProt O75116); assay: ROCK II kinase inhibition, Method 1 Proqinase setup (33P radioisotopic protein kinase assay); format: biochemical; conditions: 33P radioisotopic assay, 1 μM ATP, read-out: IC50 Meth. 1
T1 construct: purchased Proqinase
Description: A ^33P radioisotopic protein kinase assay is used to determine the IC50 for inhibiting ROCK II. A final 50 μl reaction cocktail, containing 60 mM HEPES-NaOH (pH 7.5), 3 mM MgCl2, 3 mM MnCl2, 3 μM Na-orthovanadate, 1.2 mM DTT, 1 μM ATP, 50 μg/ml PEG20.000, 1% (v/v) DMSO, 1 μM ATP (approx. 3×10^5 cpm ^33P-γ-ATP), the substrate (Substrate: S6 peptide—2000 ng/well) and recombinant protein kinase (0.5 nM-2.5 ng/well) is mixed on a shaker and incubated at 30° C. for 80 minutes. The reaction is stopped by the addition of 50 μl of a 2% solution of H3PO4 and mixed on a shaker. After washing twice with 200 μl of a 0.9% solution of NaCl, the dry plate is counted.

ROCKα/ROCKII = target: T2, ROCKα/ROCKII (Homo sapiens, UniProt O75116); assay: ROCK inhibition, Method 2 fluorescence polarization (FP) assay, ROCK IMAP Kit; format: biochemical; conditions: 10 μM ATP, read-out: IC50 Meth. 2
T2 construct: purchased Upstate Biotechnology 14-451
T2 sequence (O75116 whole entry): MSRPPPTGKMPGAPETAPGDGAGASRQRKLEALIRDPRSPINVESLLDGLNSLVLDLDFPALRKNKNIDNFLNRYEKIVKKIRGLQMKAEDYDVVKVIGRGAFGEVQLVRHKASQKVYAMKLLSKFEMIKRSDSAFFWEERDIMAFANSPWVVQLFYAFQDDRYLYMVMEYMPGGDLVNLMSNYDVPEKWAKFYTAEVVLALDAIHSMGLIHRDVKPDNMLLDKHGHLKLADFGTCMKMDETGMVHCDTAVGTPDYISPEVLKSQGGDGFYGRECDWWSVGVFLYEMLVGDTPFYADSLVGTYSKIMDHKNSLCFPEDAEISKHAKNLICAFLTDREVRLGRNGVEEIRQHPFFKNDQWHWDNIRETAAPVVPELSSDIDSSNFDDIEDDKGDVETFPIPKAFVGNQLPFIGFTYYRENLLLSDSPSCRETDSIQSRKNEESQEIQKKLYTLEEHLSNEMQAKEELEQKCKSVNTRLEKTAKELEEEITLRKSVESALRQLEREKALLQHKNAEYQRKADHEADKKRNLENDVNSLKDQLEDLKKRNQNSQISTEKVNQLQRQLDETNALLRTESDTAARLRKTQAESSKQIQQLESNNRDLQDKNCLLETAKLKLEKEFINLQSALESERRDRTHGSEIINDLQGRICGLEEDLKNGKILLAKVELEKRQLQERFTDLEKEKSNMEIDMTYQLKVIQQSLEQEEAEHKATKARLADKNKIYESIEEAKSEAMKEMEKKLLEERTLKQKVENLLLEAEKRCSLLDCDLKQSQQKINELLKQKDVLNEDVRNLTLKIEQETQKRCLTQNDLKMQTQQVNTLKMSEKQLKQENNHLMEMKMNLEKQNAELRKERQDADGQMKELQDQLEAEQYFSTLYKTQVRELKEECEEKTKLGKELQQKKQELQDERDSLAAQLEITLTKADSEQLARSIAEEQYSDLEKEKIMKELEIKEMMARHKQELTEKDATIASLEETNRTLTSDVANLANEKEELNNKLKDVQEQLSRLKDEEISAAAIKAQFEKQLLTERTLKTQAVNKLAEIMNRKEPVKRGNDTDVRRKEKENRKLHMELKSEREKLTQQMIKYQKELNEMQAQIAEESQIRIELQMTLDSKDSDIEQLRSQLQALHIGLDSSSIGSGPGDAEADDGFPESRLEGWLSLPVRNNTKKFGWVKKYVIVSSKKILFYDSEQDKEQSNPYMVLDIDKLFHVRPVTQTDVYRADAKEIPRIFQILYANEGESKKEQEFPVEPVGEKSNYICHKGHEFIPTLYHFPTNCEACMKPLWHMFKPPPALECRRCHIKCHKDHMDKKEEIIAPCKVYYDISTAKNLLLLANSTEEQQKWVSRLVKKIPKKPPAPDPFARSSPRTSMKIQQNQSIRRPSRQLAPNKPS

T1 sequence (O75116 whole entry): as above

CCCCOC(=O)c1cccc(-c2cc(C(=O)Nc3ccncc3)ccc2C(C)N)c1 (stereo not drawn) [Compound 13, 2′-(1-Amino-ethyl)-5′-(pyridin-4-ylcarbamoyl)-biphenyl-3-carboxylic acid butyl ester]
IC50 (ROCK II): < 100 nM
IC50 (ROCKα/ROCKII): < 100 nM

COC(=O)c1cc(-c2cc(C(=O)Nc3ccncc3)ccc2C(C)N)c[nH]1 (stereo not drawn) [Compound 168, 4-[2-(1-Amino-ethyl)-5-(pyridin-4-ylcarbamoyl)-phenyl]-1H-pyrrole-2-carboxylic acid methyl ester]
IC50 (ROCK II): 100 to 1000 nM
IC50 (ROCKα/ROCKII): 100 to 1000 nM

CC(N)c1ccc(C(=O)Nc2ccncc2)cc1-c1cccc(C(=O)OCCCOc2ccccc2)c1 (stereo not drawn) [Compound 88, 2′-(1-Amino-ethyl)-5′-(pyridin-4-ylcarbamoyl)-biphenyl-3-carboxylic acid 3-phenoxy-propyl ester]
IC50 (ROCK II): < 100 nM
IC50 (ROCKα/ROCKII): 100 to 1000 nM

CC(N)c1ccc(C(=O)Nc2ccncc2F)cc1-c1cccc(C(=O)Oc2ccccc2)c1 (stereo not drawn) [Compound 71, 2′-(1-Amino-ethyl)-5′-(3-fluoro-pyridin-4-ylcarbamoyl)-biphenyl-3-carboxylic acid phenyl ester]
IC50 (ROCK II): 100 to 1000 nM
IC50 (ROCKα/ROCKII): 100 to 1000 nM

CC(N)c1ccc(C(=O)Nc2ccncc2)cc1-c1cccc(C(=O)OCC2CCCCO2)c1 (stereo not drawn) [Compound 45, 2′-(1-Amino-ethyl)-5′-(pyridin-4-ylcarbamoyl)-biphenyl-3-carboxylic acid tetrahydro-pyran-2-ylmethyl ester]
IC50 (ROCK II): < 100 nM
IC50 (ROCKα/ROCKII): < 100 nM

CC(N)c1ccc(C(=O)Nc2ccncc2)cc1-c1cccc(C(=O)Oc2ccccc2)c1 (stereo not drawn) [Compound 70, 2′-(1-Amino-ethyl)-5′-(pyridin-4-ylcarbamoyl)-biphenyl-3-carboxylic acid phenyl ester]
IC50 (ROCK II): < 100 nM
IC50 (ROCKα/ROCKII): < 100 nM

COC(=O)c1cccc(-c2cc(C(=O)Nc3ccncc3F)ccc2C(C)N)c1 (stereo not drawn) [Compound 5, 2′-(1-Amino-ethyl)-5′-(3-fluoro-pyridin-4-ylcarbamoyl)-biphenyl-3-carboxylic acid methyl ester]
IC50 (ROCK II): 100 to 1000 nM
IC50 (ROCKα/ROCKII): < 100 nM

CC(N)c1ccc(C(=O)Nc2ccncc2F)cc1-c1cccc(C(=O)OCC2CC2)c1 (stereo not drawn) [Compound 37, 2′-(1-Amino-ethyl)-5′-(3-fluoro-pyridin-4-ylcarbamoyl)-biphenyl-3-carboxylic acid cyclopropylmethyl ester]
IC50 (ROCK II): 100 to 1000 nM
IC50 (ROCKα/ROCKII): < 100 nM

CC(N)c1ccc(C(=O)Nc2ccncc2)cc1-c1c[nH]c(C(=O)Oc2ccccc2)c1 (stereo not drawn) [Compound 170, 4-[2-(1-Amino-ethyl)-5-(pyridin-4-ylcarbamoyl)-phenyl]-1H-pyrrole-2-carboxylic acid phenyl ester]
IC50 (ROCK II): 100 to 1000 nM
IC50 (ROCKα/ROCKII): < 100 nM

CCCCCCOC(=O)c1cccc(-c2cc(C(=O)Nc3ccncc3)ccc2CN)c1 [Compound 17, 2′-Aminomethyl-5′-(pyridin-4-ylcarbamoyl)-biphenyl-3-carboxylic acid hexyl ester]
IC50 (ROCK II): 100 to 1000 nM

CC(N)c1ccc(C(=O)Nc2ccncc2)cc1-c1cccc(CCC(=O)Oc2ccccc2)c1 (stereo not drawn) [Compound 167, 3-[2′-(1-Amino-ethyl)-5′-(pyridin-4-ylcarbamoyl)-biphenyl-3-yl]-propionic acid phenyl ester]
IC50 (ROCK II): 100 to 1000 nM
IC50 (ROCKα/ROCKII): < 100 nM

CC(N)c1ccc(C(=O)Nc2ccncc2)cc1-c1cccc(C(=O)OCC2CCCO2)c1 (stereo not drawn) [Compound 44, 2′-(1-Amino-ethyl)-5′-(pyridin-4-ylcarbamoyl)-biphenyl-3-carboxylic acid tetrahydro-furan-2-ylmethyl ester]
IC50 (ROCK II): < 100 nM
IC50 (ROCKα/ROCKII): < 100 nM

CCCOC(=O)c1cccc(-c2cc(C(=O)Nc3ccncc3)ccc2C(C)N)c1 (stereo not drawn) [Compound 11, 2′-(1-Amino-ethyl)-5′-(pyridin-4-ylcarbamoyl)-biphenyl-3-carboxylic acid propyl ester]
IC50 (ROCK II): < 100 nM
IC50 (ROCKα/ROCKII): < 100 nM

COC(=O)C1CCN(C(=O)c2cccc(-c3cc(C(=O)Nc4ccncc4)ccc3CN)c2)CC1 [Compound 124, 1-[2′-Aminomethyl-5′-(pyridin-4-ylcarbamoyl)-biphenyl-3-carbonyl]-piperidine-4-carboxylic acid methyl ester]
IC50 (ROCK II): 1000 to 10000 nM

NCc1ccc(C(=O)Nc2ccncc2)cc1-c1cccc(NCCSC2CCOC2=O)c1 (stereo not drawn) [Compound 136, 6-Aminomethyl-3′-[2-(2-oxo-tetrahydro-furan-3-ylsulfanyl)-ethylamino]-biphenyl-3-carboxylic acid pyridin-4-ylamide]
IC50 (ROCK II): 100 to 1000 nM

NCc1ccc(C(=O)Nc2ccncc2F)cc1-c1cccc(OCC(=O)OCC2CCCC2)c1 [Compound 191]
IC50 (ROCK II): 100 to 1000 nM

NCc1ccc(C(=O)Nc2ccncc2)cc1-c1cccc(C(=O)OCC2CCCCC2)c1 [Compound 39, 2′-Aminomethyl-5′-(pyridin-4-ylcarbamoyl)-biphenyl-3-carboxylic acid cyclohexylmethyl ester]
IC50 (ROCK II): 100 to 1000 nM

NCc1ccc(C(=O)Nc2ccncc2)cc1-c1cccc(C(=O)OC2CCC2)c1 [Compound 31, 2′-Aminomethyl-5′-(pyridin-4-ylcarbamoyl)-biphenyl-3-carboxylic acid cyclobutyl ester]
IC50 (ROCK II): 100 to 1000 nM

NCc1ccc(C(=O)Nc2ccncc2F)cc1-c1cccc(C(=O)OCc2ccccc2)c1 [Compound 180]
IC50 (ROCK II): 100 to 1000 nM

NCc1ccc(C(=O)Nc2ccncc2)cc1-c1cccc(C(=O)OC2CCCC2)c1 [Compound 32, 2′-Aminomethyl-5′-(pyridin-4-ylcarbamoyl)-biphenyl-3-carboxylic acid cyclopentyl ester]
IC50 (ROCK II): 100 to 1000 nM

NCc1ccc(C(=O)Nc2ccncc2F)cc1-c1cccc(CC(=O)OCCO)c1 [Compound 195]
IC50 (ROCK II): 1000 to 10000 nM

CCSC(=O)COc1cccc(-c2cc(C(=O)Nc3ccncc3)ccc2CN)c1 [Compound 143, [2′-Aminomethyl-5′-(pyridin-4-ylcarbamoyl)-biphenyl-3-yloxy]-thioacetic acid S-ethyl ester]
IC50 (ROCK II): 100 to 1000 nM

NCc1ccc(C(=O)Nc2ccncc2)cc1-c1cccc(C(=O)OCC2COc3ccccc3O2)c1 (stereo not drawn) [Compound 55, 2′-Aminomethyl-5′-(pyridin-4-ylcarbamoyl)-biphenyl-3-carboxylic acid 2,3-dihydro-benzo[1,4]dioxin-2-ylmethyl ester]
IC50 (ROCK II): < 100 nM

COC(=O)CNC(=O)c1cccc(-c2cc(C(=O)Nc3ccncc3)ccc2CN)c1 [Compound 102, {[2′-Aminomethyl-5′-(pyridin-4-ylcarbamoyl)-biphenyl-3-carbonyl]-amino}-acetic acid methyl ester]
IC50 (ROCK II): < 100 nM

2′-Aminomethyl-5′- (pyridin-4-ylcarbamoyl)- biphenyl-3-carboxylic acid 2-methoxy-propyl ester [Compound 42]
IC50 (ROCK II): 100 to 1000 nM

NCc1ccc(C(=O)Nc2ccncc2F)cc1-c1cccc(CC(=O)OCCF)c1 [Compound 192]
IC50 (ROCK II): 1000 to 10000 nM

COC(=O)c1ccc(-c2cc(C(=O)Nc3ccncc3)ccc2CN)cc1 [Compound 2, 2′-Aminomethyl-5′-(pyridin-4-ylcarbamoyl)-biphenyl-4-carboxylic acid methyl ester]
IC50 (ROCK II): 1000 to 10000 nM

NCc1ccc(C(=O)Nc2ccncc2)cc1-c1cccc(C(=O)Oc2ccccc2F)c1 [Compound 53, 2′-Aminomethyl-5′-(pyridin-4-ylcarbamoyl)-biphenyl-3-carboxylic acid 2-fluoro-phenyl ester]
IC50 (ROCK II): 100 to 1000 nM

CN1CCC(OC(=O)c2cccc(-c3cc(C(=O)Nc4ccncc4)ccc3CN)c2)CC1 [Compound 48, 2′-Aminomethyl-5′-(pyridin-4-ylcarbamoyl)-biphenyl-3-carboxylic acid 1-methyl-piperidin-4-yl ester]
IC50 (ROCK II): 100 to 1000 nM

CCOC(=O)c1cccc(-c2cc(C(=O)Nc3ccncc3)ccc2CN)c1 [Compound 7, 2′-Aminomethyl-5′-(pyridin-4-ylcarbamoyl)-biphenyl-3-carboxylic acid ethyl ester]
IC50 (ROCK II): 100 to 1000 nM

NCc1ccc(C(=O)Nc2ccncc2)cc1-c1cccc(C(=O)OC2CCOCC2)c1 [Compound 43, 2′-Aminomethyl-5′-(pyridin-4-ylcarbamoyl)-biphenyl-3-carboxylic acid tetrahydro-pyran-4-yl ester]
IC50 (ROCK II): 100 to 1000 nM

NCc1ccc(C(=O)Nc2ccncc2F)cc1-c1cccc(C(=O)OCC2CCCC2)c1 [Compound 185]
IC50 (ROCK II): 100 to 1000 nM

NCc1ccc(C(=O)Nc2ccncc2F)cc1-c1cccc(C(=O)NC2CCSC2=O)c1 (stereo not drawn) [Compound 179]
IC50 (ROCK II): 100 to 1000 nM

NCc1ccc(C(=O)Nc2ccncc2F)cc1-c1cccc(C(=O)OCC2CCC2)c1 [Compound 184]
IC50 (ROCK II): 100 to 1000 nM

COC(=O)CNC(=O)COc1cccc(-c2cc(C(=O)Nc3ccncc3)ccc2CN)c1 [Compound 147, {2-[2′-Aminomethyl-5′-(pyridin-4-ylcarbamoyl)-biphenyl-3-yloxy]-acetylamino}-acetic acid methyl ester]
IC50 (ROCK II): < 100 nM

NCc1ccc(C(=O)Nc2ccncc2F)cc1-c1cccc(C(=O)OCCO)c1 [Compound 183]
IC50 (ROCK II): 100 to 1000 nM

NCc1ccc(C(=O)Nc2ccncc2F)cc1-c1cccc(OCC(=O)OCc2ccccc2)c1 [Compound 181]
IC50 (ROCK II): 1000 to 10000 nM

COC(=O)c1cc2c(-c3cc(C(=O)Nc4ccncc4)ccc3C(C)N)cccc2[nH]1 (stereo not drawn) [Compound 171, 4-[2-(1-Amino-ethyl)-5-(pyridin-4-ylcarbamoyl)-phenyl]-1H-indole-2-carboxylic acid methyl ester]
IC50 (ROCK II): 100 to 1000 nM

NCc1ccc(C(=O)Nc2ccncc2F)cc1-c1cccc(C(=O)OCCC23CC4CC(CC(C4)C2)C3)c1 [Compound 189]
IC50 (ROCK II): 100 to 1000 nM
